Results from patent US20060205641A1, “[…]4 polypeptides and […]4 polynucleotides” (SmithKline Beecham plc, priority 1999, published 2006).

Experiments:
Assay type in all cases: cell-based
hVR1 = target: T1, hVR1 (Homo sapiens, UniProt Q8NER1); details: for pEC50 hVR1: HEK293 cells transiently expressing hVR1, Fluo-3 calcium, FLIPR, mean ± s.e.mean, n = 3-5, IA = inactive; for activity at VR1: result in words
T1 construct: expressed in transfected cells; host or cells: HEK293 (transient expression)

[1] = system: HEK293 cells transfected with empty vector; experiment: FLIPR intracellular calcium assay, HEK293 cells transfected with empty vector; details: result in words
hVR4 = target: T2, hVR4 (Homo sapiens, UniProt Q9HBA0); experiment: FLIPR intracellular calcium assay, HEK293 cells transiently expressing hVR4 ([…]4); details: for pEC50 hVR4: HEK293 cells transiently expressing hVR4, Fluo-3 calcium, FLIPR, mean ± s.e.mean, n = 3-5, IA = inactive; for effect on intracellular calcium in HEK293-hVR4 cells: result in words
T2 construct: expressed in transfected cells; host or cells: HEK293 (transient expression)
Method: HEK293 cells transiently expressing hVR1 or hVR4 were seeded into FLIPR96 plates at 25,000 cells/well and cultured overnight. The cells were then loaded in medium containing 4 microM Fluo-3 for 2 hrs, at room temperature, in the dark. The cell plates were then washed 4× with Tyrode containing 1.5 mM calcium and 0.2% BSA. Agonist and antagonist plates were prepared in the same buffer. Cells were preincubated with either antagonist or buffer at room temperature for 30 mins. Agonists additions and calcium measurements were made in the FLIPR (Smart et al., (2000) Br J. Pharmacol. 129, 227-230).

wild type HEK293 cells = experiment: FLIPR intracellular calcium assay, wild type HEK293 cells; details: result in words

T2 sequence (Q9HBA0 whole entry): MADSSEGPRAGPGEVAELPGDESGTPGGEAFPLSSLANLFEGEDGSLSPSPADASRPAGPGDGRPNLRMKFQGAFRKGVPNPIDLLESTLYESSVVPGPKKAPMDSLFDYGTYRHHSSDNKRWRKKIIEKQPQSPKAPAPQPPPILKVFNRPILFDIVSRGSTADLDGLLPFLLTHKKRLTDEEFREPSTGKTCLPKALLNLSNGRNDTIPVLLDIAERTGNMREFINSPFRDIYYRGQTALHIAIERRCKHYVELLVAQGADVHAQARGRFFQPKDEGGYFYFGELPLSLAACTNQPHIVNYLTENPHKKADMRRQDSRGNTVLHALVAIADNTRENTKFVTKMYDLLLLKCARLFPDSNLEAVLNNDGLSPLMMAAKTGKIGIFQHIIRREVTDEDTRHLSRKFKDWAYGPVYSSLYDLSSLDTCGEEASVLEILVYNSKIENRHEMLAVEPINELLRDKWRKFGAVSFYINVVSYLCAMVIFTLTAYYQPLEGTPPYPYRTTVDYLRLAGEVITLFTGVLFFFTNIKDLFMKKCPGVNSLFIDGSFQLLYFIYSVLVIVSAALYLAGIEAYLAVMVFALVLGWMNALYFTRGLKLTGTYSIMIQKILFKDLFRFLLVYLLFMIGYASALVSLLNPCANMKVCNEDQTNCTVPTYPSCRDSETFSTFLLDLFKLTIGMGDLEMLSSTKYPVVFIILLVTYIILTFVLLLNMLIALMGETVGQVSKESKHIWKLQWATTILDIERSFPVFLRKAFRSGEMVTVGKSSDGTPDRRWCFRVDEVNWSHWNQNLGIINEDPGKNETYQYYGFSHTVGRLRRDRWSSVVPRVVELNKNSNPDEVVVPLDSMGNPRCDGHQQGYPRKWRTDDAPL
T1 sequence (Q8NER1 whole entry): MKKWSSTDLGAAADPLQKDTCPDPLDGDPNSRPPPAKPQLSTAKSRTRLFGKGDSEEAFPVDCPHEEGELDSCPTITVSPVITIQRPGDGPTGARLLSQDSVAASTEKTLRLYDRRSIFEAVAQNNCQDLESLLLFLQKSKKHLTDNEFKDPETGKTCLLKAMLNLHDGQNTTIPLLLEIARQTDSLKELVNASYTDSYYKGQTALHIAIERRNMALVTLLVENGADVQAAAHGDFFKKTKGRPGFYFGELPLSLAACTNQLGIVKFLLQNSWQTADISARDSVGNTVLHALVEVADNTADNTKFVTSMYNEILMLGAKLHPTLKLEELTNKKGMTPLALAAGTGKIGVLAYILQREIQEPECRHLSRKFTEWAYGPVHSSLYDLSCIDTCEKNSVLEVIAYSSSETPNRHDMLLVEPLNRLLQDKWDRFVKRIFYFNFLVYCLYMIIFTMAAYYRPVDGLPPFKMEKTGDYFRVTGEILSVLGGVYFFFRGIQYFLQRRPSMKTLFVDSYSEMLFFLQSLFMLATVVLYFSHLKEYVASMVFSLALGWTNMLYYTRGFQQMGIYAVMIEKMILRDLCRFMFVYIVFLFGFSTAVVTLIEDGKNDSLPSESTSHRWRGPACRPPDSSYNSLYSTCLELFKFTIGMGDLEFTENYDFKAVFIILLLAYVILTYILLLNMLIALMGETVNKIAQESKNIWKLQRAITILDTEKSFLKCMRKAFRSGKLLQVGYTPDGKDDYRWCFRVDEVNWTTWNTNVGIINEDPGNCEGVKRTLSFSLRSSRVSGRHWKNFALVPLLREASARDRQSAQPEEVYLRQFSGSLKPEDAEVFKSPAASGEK

Row | SMILES | pEC50 hVR1 (hVR1) | effect on intracellular calcium in cells transfected with empty vector [1] | pEC50 hVR4 (hVR4) | selectivity (conclusion) (hVR4; VR4 versus VR1, result in words) | effect on intracellular calcium in HEK293-hVR4 cells (hVR4) | activity at VR1 (hVR1) | effect on intracellular calcium in wild type HEK293 cells (wild type HEK293 cells) | Emax (hVR1; at VR1, compared to capsaicin and RTX)
1 | C=C(C)[C@]12C[C@@H](C)[C@@]34O[C@](Cc5ccccc5)(O[C@@H]1[C@@H]3C=C(COC(=O)Cc1ccc(O)c(OC)c1)C[C@]1(O)C(=O)C(C)=C[C@@H]41)O2 [RTX] | 8.93 ± 0.20 | – | – | – | – | – | – | –
2 | CCCCCCCCCC(=O)O[C@@H]1[C@@H](C)[C@@]2(O)[C@@H](C=C(CO)C[C@@]3(O)C(=O)C(C)=C[C@@H]23)[C@@H]2C(C)(C)[C@]12OC(=O)CCCCCCCCC [4αPDD, 4α-phorbol-12,13-didecanoate] | – | without effect | 5.73 ± 0.06 | In conclusion, 4αPDD acts as a VR4 selective agonist. | increased intracellular calcium | inactive | without effect | –
3 | CCCCCCCCCCCCCC(=O)O[C@@H]1[C@@H](C)[C@@]2(O)[C@@H](C=C(CO)C[C@]3(O)C(=O)C(C)=C[C@@H]23)[C@@H]2C(C)(C)[C@]12OC(C)=O [PMA, phorbol 12-myristate 13-acetate] | 7.86 ± 0.06 | without effect | 6.64 ± 0.06 | – | increased intracellular calcium | partial agonist | without effect | 0.46
